Test results as given in patent US20250312352A1, “GLP-1R MODULATING COMPOUNDS” (Gilead Sciences, Inc., priority 2021, published 2025).

These molecules were tested against T1, GLP-1R (Homo sapiens, UniProt P43220) (assay: GLP-1R activation cAMP assay (Assay 1 or Assay 2)). Conditions: cAMP increase in CHO cells stably expressing GLP-1R; compounds run on one of the two cAMP assays.
T1 construct: host or cells: CHO cells
Assay type: cell-based
How it was run: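 EC50 values come from a sigmoidal fit of HTRF-detected cAMP rise versus log agonist concentration. GLP-1R-expressing CHO cells, equilibrated 1 h at 37 °C in HBSS with HEPES and BSA, received a 10-point compound dose series for 30 min before detection.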

T1 sequence (P43220 24-463): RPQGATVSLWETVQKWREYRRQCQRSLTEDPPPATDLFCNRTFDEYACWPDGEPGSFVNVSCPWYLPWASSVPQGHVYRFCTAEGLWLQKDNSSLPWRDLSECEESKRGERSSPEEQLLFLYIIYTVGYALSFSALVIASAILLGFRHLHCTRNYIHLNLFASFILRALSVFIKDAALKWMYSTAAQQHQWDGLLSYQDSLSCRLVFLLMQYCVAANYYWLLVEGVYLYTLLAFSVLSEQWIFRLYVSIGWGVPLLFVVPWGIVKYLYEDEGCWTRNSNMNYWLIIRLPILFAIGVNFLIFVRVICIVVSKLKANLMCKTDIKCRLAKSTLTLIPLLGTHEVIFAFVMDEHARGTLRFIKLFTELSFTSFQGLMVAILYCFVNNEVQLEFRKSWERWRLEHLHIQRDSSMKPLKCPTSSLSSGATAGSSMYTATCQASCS

| Compound | EC50 |
| --- | --- |
| CCOC(=O)N1Cc2ccc(COc3cccc(-c4cc(F)c(Cc5nc6ccc(C(=O)O)cc6n5C[C@@H]5CCO5)cc4F)n3)cc2C1 [Example 435, (S)-2-(4-(6-((2-(ethoxycarbonyl)isoindolin-5-yl)methoxy)pyridin-2-yl)-2,5-difluorobenzyl)-1-(oxetan-2-ylmethyl)-1H-benzo[d]imidazole-6-carboxylic acid] | 0.427 nM |
| Cc1cc(Cc2nc3c(F)cc(C(=O)O)cc3n2[C@@H]2COCC2(C)C)c(F)cc1-c1ccc(F)c(OCc2ncc(C(F)(F)F)s2)n1 [Example 436, (S)-1-(4,4-dimethyltetrahydrofuran-3-yl)-4-fluoro-2-(2-fluoro-4-(5-fluoro-6-((5-(trifluoromethyl)thiazol-2-yl)methoxy)pyridin-2-yl)-5-methylbenzyl)-1H-benzo[d]imidazole-6-carboxylic acid] | 0.367 nM |
| CC1(C)COCC1n1c(Cc2cc(F)c(-c3cccc(OCc4ncc(C(F)(F)F)s4)n3)cc2F)nc2c(F)cc(C(=O)O)cc21 (centres unmarked) [Example 437, 2-(2,5-difluoro-4-(6-((5-(trifluoromethyl)thiazol-2-yl)methoxy)pyridin-2-yl)benzyl)-1-(4,4-dimethyltetrahydrofuran-3-yl)-4-fluoro-1H-benzo[d]imidazole-6-carboxylic acid] | 0.105 nM |
| O=C(O)c1ccc2nc(Cc3cc(F)c(-c4cccc(OCc5ccc(C#Cc6cn[nH]c6)nc5)n4)cc3F)n(C[C@@H]3CCO3)c2c1 [Example 438, (S)-2-(4-(6-((6-((1H-pyrazol-4-yl)ethynyl)pyridin-3-yl)methoxy)pyridin-2-yl)-2,5-difluorobenzyl)-1-(oxetan-2-ylmethyl)-1H-benzo[d]imidazole-6-carboxylic acid] | 0.335 nM |
| COc1nnc(COc2cccc(-c3cc(F)c(Cc4nc5c(F)cc(C(=O)O)cc5n4[C@@H]4COCC4(C)C)c(F)c3)n2)s1 [Example 439, (S)-2-(2,6-difluoro-4-(6-((5-methoxy-1,3,4-thiadiazol-2-yl)methoxy)pyridin-2-yl)benzyl)-1-(4,4-dimethyltetrahydrofuran-3-yl)-4-fluoro-1H-benzo[d]imidazole-6-carboxylic acid] | 0.397 nM |
| CC1(C)COC[C@H]1n1c(Cc2ccc(-c3cccc(OCc4ccc(C#N)cc4F)n3)cc2F)nc2c(F)cc(C(=O)O)cc21 [Example 440, (S)-2-(4-(6-((4-cyano-2-fluorobenzyl)oxy)pyridin-2-yl)-2-fluorobenzyl)-1-(4,4-dimethyltetrahydrofuran-3-yl)-4-fluoro-1H-benzo[d]imidazole-6-carboxylic acid] | 0.041 nM |
| COc1nnc(COc2nc(-c3cc(Cl)c(Cc4nc5ccc(C(=O)O)cc5n4[C@@H]4COCC4(C)C)cc3C)ccc2F)s1 [Example 441, (S)-2-(2-chloro-4-(5-fluoro-6-((5-methoxy-1,3,4-thiadiazol-2-yl)methoxy)pyridin-2-yl)-5-methylbenzyl)-1-(4,4-dimethyltetrahydrofuran-3-yl)-1H-benzo[d]imidazole-6-carboxylic acid] | 0.475 nM |
| COc1nnc(COc2cccc(-c3cc(Cl)c(Cc4nc5ccc(C(=O)O)cc5n4[C@@H]4COCC4(C)C)cc3C)n2)s1 [Example 442, (S)-2-(2-chloro-4-(6-((5-methoxy-1,3,4-thiadiazol-2-yl)methoxy)pyridin-2-yl)-5-methylbenzyl)-1-(4,4-dimethyltetrahydrofuran-3-yl)-1H-benzo[d]imidazole-6-carboxylic acid] | 0.669 nM |
| COc1nnc(COc2nc(-c3cc(Cl)c(Cc4nc5c(F)cc(C(=O)O)cc5n4C[C@@H]4CCO4)cc3C)ccc2F)s1 [Example 443, (S)-2-(2-chloro-4-(5-fluoro-6-((5-methoxy-1,3,4-thiadiazol-2-yl)methoxy)pyridin-2-yl)-5-methylbenzyl)-4-fluoro-1-(oxetan-2-ylmethyl)-1H-benzo[d]imidazole-6-carboxylic acid] | 3.45 nM |
| CNC(=O)c1cc(Cl)c(COc2cccc(-c3cc(F)c(Cc4nc5ccc(C(=O)O)cc5n4C[C@@H]4CCO4)cc3F)c2)cn1 [Example 444, (S)-2-((3′-((4-chloro-6-(methylcarbamoyl)pyridin-3-yl)methoxy)-2,5-difluoro-[1,1′-biphenyl]-4-yl)methyl)-1-(oxetan-2-ylmethyl)-1H-benzo[d]imidazole-6-carboxylic acid] | 0.433 nM |
| O=C(O)c1cc(Cl)c2nc(Cc3cc(F)c(-c4cccc(OCc5ncc(C(F)(F)F)s5)n4)cc3F)n(C[C@@H]3CCO3)c2c1 [Example 445, (S)-4-chloro-2-(2,5-difluoro-4-(6-((5-(trifluoromethyl)thiazol-2-yl)methoxy)pyridin-2-yl)benzyl)-1-(oxetan-2-ylmethyl)-1H-benzo[d]imidazole-6-carboxylic acid] | 0.101 nM |
| O=C(O)c1ccc2nc(Cc3c(F)cc(-c4ccc(F)c(OCc5ncc(C(F)(F)F)s5)n4)c(F)c3F)n(C[C@@H]3CCO3)c2c1 [Example 446, (S)-1-(oxetan-2-ylmethyl)-2-(2,3,6-trifluoro-4-(5-fluoro-6-((5-(trifluoromethyl)thiazol-2-yl)methoxy)pyridin-2-yl)benzyl)-1H-benzo[d]imidazole-6-carboxylic acid] | 0.17 nM |
| O=C(O)c1cc(F)c2nc(Cc3c(F)cc(-c4ccc(F)c(OCc5ncc(C(F)(F)F)s5)n4)c(F)c3F)n(C[C@@H]3CCO3)c2c1 [Example 447, (S)-4-fluoro-1-(oxetan-2-ylmethyl)-2-(2,3,6-trifluoro-4-(5-fluoro-6-((5-(trifluoromethyl)thiazol-2-yl)methoxy)pyridin-2-yl)benzyl)-1H-benzo[d]imidazole-6-carboxylic acid] | 0.02 nM |
| O=C(O)c1ccc2nc(Cc3c(F)cc(-c4cccc(OCc5ncc(C(F)(F)F)s5)n4)c(F)c3F)n(C[C@@H]3CCO3)c2c1 [Example 448, (S)-1-(oxetan-2-ylmethyl)-2-(2,3,6-trifluoro-4-(6-((5-(trifluoromethyl)thiazol-2-yl)methoxy)pyridin-2-yl)benzyl)-1H-benzo[d]imidazole-6-carboxylic acid] | 0.118 nM |
| O=C(O)c1cc(F)c2nc(Cc3c(F)cc(-c4cccc(OCc5ncc(C(F)(F)F)s5)n4)c(F)c3F)n(C[C@@H]3CCO3)c2c1 [Example 449, (S)-4-fluoro-1-(oxetan-2-ylmethyl)-2-(2,3,6-trifluoro-4-(6-((5-(trifluoromethyl)thiazol-2-yl)methoxy)pyridin-2-yl)benzyl)-1H-benzo[d]imidazole-6-carboxylic acid] | 0.081 nM |
| CNC(=O)c1cc(Cl)c(COc2cccc(-c3cc(F)c(Cc4nc5ccc(C(=O)O)cc5n4CC4(CF)CC4)c(F)c3F)n2)cn1 [Example 450, 2-(4-(6-((4-chloro-6-(methylcarbamoyl)pyridin-3-yl)methoxy)pyridin-2-yl)-2,3,6-trifluorobenzyl)-1-((1-(fluoromethyl)cyclopropyl)methyl)-1H-benzo[d]imidazole-6-carboxylic acid] | 0.05 nM |
| CNC(=O)c1cc(Cl)c(COc2cccc(-c3cc(F)c(Cc4nc5ccc(C(=O)O)cc5n4CC4(CF)CC4)c(F)c3F)c2)cn1 [Example 451, 2-((3′-((4-chloro-6-(methylcarbamoyl)pyridin-3-yl)methoxy)-2,3,5-trifluoro-[1,1′-biphenyl]-4-yl)methyl)-1-((1-(fluoromethyl)cyclopropyl)methyl)-1H-benzo[d]imidazole-6-carboxylic acid] | 0.611 nM |
